Assay results taken from patent publication US11883372B2, “Pharmaceutical composition” (MEXICHEM FLUOR S.A. DE C.V., priority 2016, dated 2024).

Assay: In vitro aerosolization performance of MDI formulations (Next Generation Impactor, HPLC)
Type: physicochemical
Settings: for FPFED (%) fine particle fraction of the emitted dose / Fine particle Dose (μg ± S.D.) / MMAD ± GSD / Emitted Dose (μg ± S.D.): NGI at 30 L.min^−1; for MMAD ± GSD: in µm (unit assumed); for Emitted Dose (μg ± S.D.): nominal dose salmeterol xinafoate 25 μg, fluticasone propionate 125 μg
Description: The nominal dose of salmeterol xinafoate was 25 μg and the nominal dose of fluticasone propionate was 125 μg.
A 100 mm×4.6 mm Ascentis Express […] column with a 2.7 μm particle size was used for the analysis.

[1] = combination MDI formulation in HFA-134a
[2] = combination MDI formulation in HFA-152a

- fine particle fractions of the emitted doses upon aerosolization, HFA-152a compared with HFA-134a (HFA-152a used as the propellant, versus HFA-134a (Tables 2 and 3)): significantly better
- FPFED (%) fine particle fraction of the emitted dose [1]: 31.0%
- Fine particle Dose (μg ± S.D.) [1]: 31.6 ± 3.3 µg
- MMAD ± GSD [1]: 3.8 ± 2.5
- Emitted Dose (μg ± S.D.) [1]: 101.7 ± 8.7 µg
- FPFED (%) fine particle fraction of the emitted dose [2]: 40.0%
- Fine particle Dose (μg ± S.D.) [2]: 43.5 ± 3.4 µg
- MMAD ± GSD [2]: 2.9 ± 2.1
- Emitted Dose (μg ± S.D.) [2]: 108.7 ± 1.1 µg
SMILES: CCC(=O)O[C@]1(C(=O)SCF)[C@H](C)C[C@H]2[C@@H]3C[C@H](F)C4=CC(=O)C=C[C@]4(C)[C@@]3(F)[C@@H](O)C[C@@]21C [Fluticasone Propionate, fluticasone propionate]
